{"source": "patent US10960078B2", "about": "(priority 2013, dated 2021)", "key": {"[1]": {"assay": "Self-assembly of Ir-Cb ADDC in water: size and morphology by DLS and TEM", "format": "physicochemical", "description": "The inherent amphiphilicity of the Ir-Cb ADDC provides an opportunity for itself to self-assemble into nanoparticles in water. To determine the size and morphology of the self-assembled nanoparticles, a dimethylsulfoxide (DMSO) solution of the Ir-Cb ADDC was added dropwise into water, followed by dialysis against water to remove DMSO. A stable and bluish solution with the final Ir-Cb conjugate concentration of 0.5 mg mL^−1 was obtained. FIG. 7a gives the dynamic light scattering (DLS) curve of Ir-Cb ADDC aqueous solution with a concentration of 0.5 mg mL^−1, indicating the formation of aggregates with a narrow unimodal distribution and an average hydrodynamic diameter of approximate 88.3 nm. The morphology of the aggregates was observed by transmission electron microscopy (TEM). […] This size is slightly smaller than that measured by DLS due to the shrinkage of nanoparticles in a drying state during TEM sample preparation. […]\n^1H and ^13C nuclear magnetic resonance (^1H NMR and ^13C NMR) spectra were recorded using a Varian Mercury Plus 400 MHz spectrometer. Fourier transform infrared (FTIR) spectra were recorded on a Paragon 1,000 instrument by KBr sample holder method. […] All samples were measured at a scattering angle of 90°. […] Ultraviolet-visible (UV-Vis) absorption of the sample solutions was measured at room temperature by using a Thermo Electron-EV300 UV-Vis spectrophotometer. […]"}, "[2]": {"assay": "Critical aggregation concentration (CAC) measurement with pyrene fluorescent probe", "format": "physicochemical", "conditions": "in water, pyrene I3/I1", "description": "To investigate the self-assembly behavior of Ir-Cb ADDC in water, the critical aggregation concentration (CAC) was measured by using pyrene as a fluorescent probe. I1 and I3 are the emission intensities of the first and third bands in the fluorescence spectrum of pyrene respectively, which are labeled as 1 and 3 in the inset of FIG. 7c. The emission intensity ratio of I3/I1 is very sensitive to the polarity of the medium surrounding pyrene molecules. (Kwon, et al. 1993 Langmuir 9, 945-949.) The higher polarity of the medium, the lower the intensity ratio is. The relationship of the I3/I1 ratio with the Ir-Cb ADDC concentration is present in FIG. 7c. At low Ir-Cb ADDC concentration, the I3/I1 value remains nearly unchanged, indicating the characteristics of pyrene in water environment. With increasing Ir-Cb ADDC concentration, the ratio of I3/I1 starts to increase dramatically and reaches the characteristic level of pyrene in hydrophobic environment at a certain Ir-Cb ADDC concentration. According to the inflexion of the curve, the CAC value of the Ir-Cb ADDC is about 7 μg mL^−1.\nTo determine the CAC value of the Ir-Cb ADDC, pyrene was used as the fluorescence probe. […] The fluorescence emission spectra of all samples were recorded on a LS-50B luminescence spectrometer (Perkin Elmer Co.) at 335 nm excitation wavelength and 8 nm slit width. The I3/I1 values of all solution were recorded."}, "[3]": {"test_system": "MCF-7 cells", "assay": "In vitro cytotoxicity by MTT assay, MCF-7 cells", "description": "The cells without any treatment were used as the control.\nThe cells were seeded into 96-well plates at 1×10^4 cells per well in 200 μL of culture medium. […] The cells without the treatment were used as control. The cells were grown for another 72 h. Then, 20 μL of 5 mg mL^−1 MTT assay stock solution in PBS was added to each well. After the cells were incubated for 4 h, the medium containing unreacted MTT was carefully removed. Then, the obtained blue formazan crystals were dissolved in 200 μL well^−1 DMSO, and the absorbance was measured in a BioTek Synergy H4 hybrid reader at a wavelength of 490 nm. The blank was subtracted to the measured optical density (OD) values, and the cell viability was expressed as % of the values obtained for the untreated control cells."}, "[4]": {"test_system": "MCF-7/ADR cells", "assay": "Accumulation and efflux assay in MCF-7 and MCF-7/ADR cells (flow cytometry)", "format": "cell-based, human", "conditions": "30 μM, 1-4 h incubation", "experimental": "The fluorescent intensity was calculated by CellQuest software, and blanked by untreated cells."}, "[5]": {"assay": "In vivo biodistribution in MCF-7 tumor-bearing mice", "parameters": "species or system Balb/c female nude mice", "conditions": "MCF-7 tumor-bearing nude mice, i.v.; Cb 3.5, Ir 6.7, Ir-Cb nanoparticles 10 mg kg^−1", "description": "Furthermore, to examine the amount of Ir-Cb ADDC in the tumors and other organs, the MCF-7 tumor-bearing mice were sacrificed after intravenous injection with different time intervals. The tumor-bearing mice treated with free Cb and Ir were used as controls. […] After injection for 6 h, the content of Ir-Cb ADDC obviously decreases in kidney, spleen and lung, whereas the downward trend in tumor and liver is slower (FIG. 13b). […] After 6 h, the Ir concentration in spleen and lung decreases quickly.\nThe biodistribution of Cb, Ir and Ir-Cb nanoparticles was analyzed in Balb/c female nude mice bearing MCF-7 tumors. The MCF-7 tumor-bearing mice were intravenously injected via tail vein with Cb, Ir and Ir-Cb nanoparticles at a dose of Cb (3.5 mg kg^−1), Ir (6.7 mg kg^−1) and Ir-Cb nanoparticles (10 mg kg^−1). Mice were sacrificed by cervical vertebra dislocation at 30 min, 1 h and 6 h after drug administration (n=3 at each time point), and the heart, liver, spleen, lung, kidney and tumor were collected. Tissue samples were rinsed in saline, blotted using paper towel, weighed and stored at −80° C. before being homogenized. Cb, Ir and Ir-Cb were extracted from the homogenate using 2 mL of dichloromethane and methanol (4:1, v/v). The organic phases were collected and dried, and the samples were dissolved in acetonitrile for analysis."}, "[6]": {"test_system": "MCF-7 tumor", "assay": "Immunohistochemical analysis of tumor tissues (H&E, PCNA)", "format": "in vivo, Balb/c female nude mice", "conditions": "MCF-7 tumors after treatment", "description": "3 days after the last injection, mice were sacrificed and tumor tissues were excised. The tissues were fixed in 10% formalin and embedded in paraffin. The paraffin-embedded 5 μm tumor sections were analyzed by immunohistochemical analysis for PCNA expression. To analyze the PCNA, endogenous peroxidase activity was inhibited by 3% hydrogen peroxide aqueous solution for 10 min, and the sections were heated to boiling in 0.01 M sodium citrate buffer (pH 6.0) for 10 min in the microwave oven for antigen retrieval and repeated boiling process for once. Subsequently, the sections were allowed to cool in the same buffer, rinsed twice with PBS for 5 min and then incubated with PCNA antibody (Boster, China, 1:200) for 30 min at room temperature and then at 4° C. overnight. After washing, sections were incubated with biotinylated secondary antibodies for 20 min at 37° C. Finally, a streptavidin-biotin complex was applied and the immunoreactivity was visualized with diaminobenzidine as a chromogen. The sections were imaged by using Olympus Fluorescence Microscope (Olympus BX61). […]\nEach mouse of different group was earmarked and followed individually throughout the whole experiments. The length and width of the tumor and the body weight of mice were measured before every injection by the end of experiment. Tumor volume (V) was calculated using the formula: V (mm^3)=½×length (mm)×width (mm)^2. […]"}, "[7]": {"assay": "In vitro drug release by dialysis in buffered solutions", "conditions": "pH 5.0, 37° C."}, "[8]": {"test_system": "MCF-7 cells", "format": "cell-based, human", "conditions": "30 μM, 24 h", "description": "The untreated cells were used as control.\nMCF-7 cells were seeded in 6-well plates at 5.0×10^5 cells per well in 2 mL of complete DMEM and cultured for 24 h. […] MCF-7 cells without the treatment were used as a control. […] For cell cycle determination, treated cells were collected, washed for twice with ice-cold PBS, fixed with 70% ethanol at 4° C. overnight and treated with Rnase A for 45 min at 37° C., followed by PI staining for 30 min in the dark."}, "[9]": {"test_system": "caspase-3", "assay": "Western blot analysis of caspase-3 expression", "format": "cell-based, human", "conditions": "MCF-7 cells, 30 μM, 24 h", "experimental": "The untreated MCF-7 cells were used as a negative control.\nMCF-7 cells were seeded in 6-well plates at a density of 5.0×10^5 cells per well in 2 mL of complete DMEM and allowed to attach for 24 h. […] MCF-7 cells untreated were used as a negative control. After treatment for 24 h, the MCF-7 cells were harvested. The cellular proteins were extracted in Laemmli buffer and the protein content in the extracts was quantified using a bicinchoninic acid (BCA) protein assay kit (Pierce, USA). Equal amounts of proteins (30 μg lane^−1) were separated on sodium dodecyl sulfate-polyacrylamide gels (SDS-PAGE) and electrotransferred to 0.22 μm polyvinylidene fluoride (PVDF) membranes. The membranes were then blocked with 5% non-fat dry milk in TBST (Tris buffered saline supplemented with 0.05% Tween-20) and probed with antibodies against β-actin (1:1,000 dilution), caspase-3 (1:1,000 dilution) followed by HRP-conjugated (HRP: horseradish peroxidase) anti-rabbit immunoglobulin-G (IgG, 1:5,000 dilution). β-Actin was used as the loading control. Protein bands were detected using Chemiluminescent HRP Substrate (Themo Scientific, USA) according to the manufacture's protocol and analyzed using the ChemiDoc™ MP Imaging System (Bio-Rad, USA)."}, "[10]": {"test_system": "MCF-7 tumor", "format": "in vivo, Balb/c female nude mice", "conditions": "for tumor inhibitory rate (TIR): from tumor weight versus PBS group, 24 days", "description": "Tumor volume and body weight of tumor-bearing mice were monitored every 3 days within 24 days. […] The tumor inhibitory rate (TIR) was calculated from tumor weight.\nStudy protocols involving animals were approved by the Animal Ethics Committee of Shanghai Jiao Tong University School of Medicine. SD rats (˜200 g) and 72 Balb/c female nude mice (4 weeks of age) were supplied by Chinese Academy of Sciences (Shanghai). The female nude mice were injected subcutaneously in the right flank region with 200 μL of cell suspension containing 4×10^6 MCF-7 cells. The tumors were allowed to grow to ˜200 mm^3 before experimentation.\nEach mouse of different group was earmarked and followed individually throughout the whole experiments. The length and width of the tumor and the body weight of mice were measured before every injection by the end of experiment. Tumor volume (V) was calculated using the formula: V (mm^3)=½×length (mm)×width (mm)^2. After 24 days postinjection, mice were sacrificed, and tumors were separated, weighted and photographed. In addition, the tumors were cut into small pieces, fixed in 10% formalin and embedded in paraffin. Then the tissues embedded in paraffin were sectioned for histopathological analysis with H&E staining."}, "[11]": {"assay": "Pharmacokinetic study (blood retention) after i.v. injection", "conditions": "rats, 8 mg kg^−1, 12 h", "experimental": "The blood samples (0.5 mL) were taken from the eye socket at the 5 min, 15 min, 30 min, 1 h, 2 h, 4 h, 6 h, 8 h, and 12 h time points after injection. The plasma was obtained by centrifugation at 3,000 rpm for 10 min and stored at −20° C. A 200 μL of plasma was treated two times with 250 μL of acetonitrile and methanol mixture (1:1 v/v). The solvent solutions separated by centrifugation were pooled."}, "[12]": {"test_system": "MCF-7 cells", "assay": "Cell cycle assay (PI staining, flow cytometry)", "format": "cell-based, human", "conditions": "30 μM, 24 h", "description": "MCF-7 cells were seeded in 6-well plates at 5.0×10^5 cells per well in 2 mL of complete DMEM and cultured for 24 h. […] MCF-7 cells without the treatment were used as a control. For quantitative measurement of apoptosis, treated cells were harvested and washed twice with ice-cold PBS, stained with Alexa Fluor® 488 annexin V and PI according to the manufacturer's instructions. For cell cycle determination, treated cells were collected, washed for twice with ice-cold PBS, fixed with 70% ethanol at 4° C. overnight and treated with Rnase A for 45 min at 37° C., followed by PI staining for 30 min in the dark. Both cell apoptosis and cycle were analyzed by flow cytometry (BD FACSCalibur, USA), and […] per sample were counted."}}}
{"compound": "CCc1c2c(nc3ccc(OC(=O)N4CCC(N5CCCCC5)CC4)cc13)-c1cc3c(c(=O)n1C2)COC(=O)[C@@]3(CC)OC(=O)CCCc1ccc(N(CCCl)CCCl)cc1", "note": "[Ir-Cb ADDC]", "values": [{"measurement": "average hydrodynamic diameter (Dh) by DLS", "setting": "[1]; aqueous solution 0.5 mg mL^−1", "value": "~88.3", "unit": "nm"}, {"measurement": "average size of spherical nanoparticles by TEM", "setting": "[1]; dried state", "value": "~75.7", "unit": "nm"}, {"measurement": "critical aggregation concentration (CAC)", "setting": "[2]", "value": "about 7 μg mL^−1"}, {"measurement": "anticancer efficiency compared with free Ir and Ir/Cb mixture", "setting": "[3]; MCF-7 cells, concentration higher than the CAC value", "value": "much better anticancer efficiency than free Ir and Ir/Cb mixture"}, {"measurement": "antitumor activity compared with free Ir and Ir/Cb mixture", "setting": "[3]; MCF-7 cells, drug concentration lower than the CAC value", "value": "worse than that of free Ir and Ir/Cb mixture"}, {"measurement": "accumulation in MCF-7/ADR cells compared with that in MCF-7 cells", "setting": "[4]", "value": "about ½"}, {"measurement": "tissue distribution", "setting": "[5]", "value": "accumulate in liver, spleen, kidney, lung and tumor at first 2 h"}, {"measurement": "H&E histology of tumor tissue", "setting": "[6]", "value": "large necrotic area is observed"}, {"measurement": "Ir release / hydrolysis at pH 5.0", "setting": "[7]", "value": "hydrolysis of Ir-Cb ADDC is accelerated"}]}
{"compound": "O=C(O)CCCc1ccc(N(CCCl)CCCl)cc1", "note": "[Cb, chlorambucil]", "values": [{"measurement": "ratio of apoptosis cells", "setting": "[8]", "value": 18.02, "unit": "%"}, {"measurement": "caspase-3 protein expression versus untreated control", "setting": "[9]", "value": "up-regulated slightly"}, {"measurement": "tissue distribution", "setting": "[5]", "value": "largely accumulates in liver, followed by spleen, lung, heart and kidney"}, {"measurement": "tumor volume compared with the PBS group", "setting": "[10]; after 24 days treatment, i.v. once every 3 days", "value": "91.60±2.09", "unit": "%"}, {"measurement": "tumor inhibitory rate (TIR)", "setting": "[10]", "value": "9.3±2.10", "unit": "%"}, {"measurement": "plasma concentration after 12 h relative to Ir-Cb ADDC", "setting": "[11]", "value": "one twenty-fifth"}]}
{"compound": "CCc1c2c(nc3ccc(OC(=O)N4CCC(N5CCCCC5)CC4)cc13)-c1cc3c(c(=O)n1C2)COC(=O)[C@]3(O)CC", "note": "[Ir, irinotecan]", "values": [{"measurement": "IC50", "setting": "[3]; Homo sapiens, MCF7, 72 h", "value": "~5", "unit": "µM"}, {"measurement": "cytotoxicity compared with free Cb", "setting": "[3]; MCF-7 cells", "value": "much higher than that of free Cb"}, {"measurement": "caspase-3 protein expression versus untreated control", "setting": "[9]", "value": "up-regulated slightly"}, {"measurement": "percentage of G0/G1 phase", "setting": "[12]", "value": 34.25, "unit": "%"}, {"measurement": "percentage of G2/M", "setting": "[12]", "value": 27.81, "unit": "%"}, {"measurement": "percentage of S", "setting": "[12]", "value": 37.93, "unit": "%"}, {"measurement": "tissue distribution", "setting": "[5]", "value": "mainly accumulates in liver, followed by spleen, lung, kidney and heart up to 2 h"}, {"measurement": "tumor inhibitory rate (TIR)", "setting": "[10]", "value": "42.3±6.63", "unit": "%"}]}
